From the NIST ThermoML archive (doi:10.1021/je200327s)
± gives the expanded uncertainty stated by the source.

Legend:
[1] = 101.3 kPa, Liquid, Vibrating tube method
[2] = xn = mol fraction of the nth substance listed; settings: 101 kPa, Liquid, Vibrating tube method

**Q.** Which mass density ([1]; 298.2 K) does the source give for CC(C)CC(C)(C)C [2,2,4-trimethylpentane] here?
**A.** Its mass density is 687.721 ± 0.28 kg/m3.

**Q.** And the mass density ([1]; 313.2 K)?
**A.** Its mass density is 675.225 ± 0.29 kg/m3.

**Q.** With C1CCCCC1 [cyclohexane] as the molecule, how does the mass density ([1]; 298.2 K) read?
**A.** Its mass density is 773.849 ± 0.27 kg/m3.

**Q.** What does the source list for CCCCCCCCCC [decane]?
**A.** mass density ([1]; 298.2 K): 726.1 ± 0.4 kg/m3; mass density ([1]; 313.2 K): 714.726 ± 0.35 kg/m3

**Q.** Which mass density ([2]; 298.2 K, x1 = 0.0035) does the source give for c1ccc2c(c1)sc1ccccc12 [dibenzothiophene] + CCCCCCCCCCC here?
**A.** The mass density was 738.065 ± 0.35 kg/m3.

**Q.** And the mass density ([2]; 298.2 K, x1 = 0.0069)?
**A.** Its mass density is 739.235 ± 0.35 kg/m3.

**Q.** And the mass density ([2]; 298.2 K, x1 = 0.0087)?
**A.** Its mass density is 739.863 ± 0.35 kg/m3.

**Q.** And the mass density ([2]; 298.2 K, x1 = 0.0186)?
**A.** Its mass density is 743.359 ± 0.35 kg/m3.

**Q.** What about the mass density ([2]; 298.2 K, x1 = 0.0286) of the same molecule?
**A.** The mass density was 746.909 ± 0.35 kg/m3.

**Q.** What about the mass density ([2]; 298.2 K, x1 = 0.0342) of the same molecule?
**A.** Its mass density is 748.935 ± 0.35 kg/m3.

**Q.** What about the mass density ([2]; 313.2 K, x1 = 0.0035) of the same molecule?
**A.** The mass density was 726.939 ± 0.35 kg/m3.

**Q.** And the mass density ([2]; 313.2 K, x1 = 0.0069)?
**A.** The mass density was 728.106 ± 0.35 kg/m3.

**Q.** And the mass density ([2]; 313.2 K, x1 = 0.0087)?
**A.** The mass density was 728.741 ± 0.35 kg/m3.

**Q.** And the mass density ([2]; 313.2 K, x1 = 0.0186)?
**A.** Its mass density is 732.22 ± 0.35 kg/m3.

**Q.** And the mass density ([2]; 313.2 K, x1 = 0.0263)?
**A.** The mass density was 735.021 ± 0.35 kg/m3.

**Q.** And the mass density ([2]; 313.2 K, x1 = 0.0286)?
**A.** The mass density was 735.767 ± 0.35 kg/m3.

**Q.** What about the mass density ([2]; 313.2 K, x1 = 0.0342) of the same molecule?
**A.** The mass density was 737.778 ± 0.35 kg/m3.

**Q.** And the mass density ([2]; 313.2 K, x1 = 0.0436)?
**A.** The mass density was 741.11 ± 0.36 kg/m3.

**Q.** For c1ccc2c(c1)sc1ccccc12 [dibenzothiophene] + CCCCCCCCCCCC, which mass density ([2]; 298.2 K, x1 = 0.0074) is on record?
**A.** Its mass density is 747.569 ± 0.24 kg/m3.

**Q.** What about the mass density ([2]; 298.2 K, x1 = 0.0094) of the same molecule?
**A.** The mass density was 748.147 ± 0.24 kg/m3.

**Q.** And the mass density ([2]; 298.2 K, x1 = 0.0191)?
**A.** Its mass density is 751.276 ± 0.24 kg/m3.

**Q.** What about the mass density ([2]; 298.2 K, x1 = 0.0285) of the same molecule?
**A.** Its mass density is 754.322 ± 0.24 kg/m3.

**Q.** And the mass density ([2]; 298.2 K, x1 = 0.0378)?
**A.** Its mass density is 757.354 ± 0.24 kg/m3.

**Q.** What about the mass density ([2]; 313.2 K, x1 = 0.0037) of the same molecule?
**A.** The mass density was 735.448 ± 0.25 kg/m3.

**Q.** And the mass density ([2]; 313.2 K, x1 = 0.0046)?
**A.** Its mass density is 735.694 ± 0.24 kg/m3.

**Q.** What about the mass density ([2]; 313.2 K, x1 = 0.0074) of the same molecule?
**A.** Its mass density is 736.633 ± 0.24 kg/m3.

**Q.** What about the mass density ([2]; 313.2 K, x1 = 0.0098) of the same molecule?
**A.** Its mass density is 737.333 ± 0.24 kg/m3.

**Q.** And the mass density ([2]; 313.2 K, x1 = 0.0142)?
**A.** The mass density was 738.752 ± 0.24 kg/m3.

**Q.** What about the mass density ([2]; 313.2 K, x1 = 0.0187) of the same molecule?
**A.** Its mass density is 740.177 ± 0.24 kg/m3.

**Q.** What about the mass density ([2]; 313.2 K, x1 = 0.024) of the same molecule?
**A.** The mass density was 741.874 ± 0.25 kg/m3.

**Q.** What about the mass density ([2]; 313.2 K, x1 = 0.0305) of the same molecule?
**A.** The mass density was 743.953 ± 0.25 kg/m3.

**Q.** And the mass density ([2]; 313.2 K, x1 = 0.0325)?
**A.** Its mass density is 744.662 ± 0.25 kg/m3.

**Q.** What about the mass density ([2]; 313.2 K, x1 = 0.0372) of the same molecule?
**A.** Its mass density is 746.081 ± 0.25 kg/m3.

**Q.** And the mass density ([2]; 313.2 K, x1 = 0.0651)?
**A.** The mass density was 755.317 ± 0.25 kg/m3.

**Q.** Which mass density ([1]; 298.2 K) does the source give for CCCCCCCCCCCC [dodecane] here?
**A.** The mass density was 745.15 ± 0.24 kg/m3.

**Q.** What about the mass density ([1]; 313.2 K) of the same molecule?
**A.** Its mass density is 734.325 ± 0.24 kg/m3.

**Q.** Which mass density ([1]; 298.2 K) does the source give for CCCCCCC [heptane] here?
**A.** Its mass density is 679.857 ± 0.36 kg/m3.

**Q.** Which mass density ([1]; 298.2 K) does the source give for CCCCCC [hexane] here?
**A.** The mass density was 655.039 ± 2.1 kg/m3.

**Q.** Which mass density ([1]; 298.2 K) does the source give for CCCCCCCCC [nonane] here?
**A.** The mass density was 713.938 ± 0.36 kg/m3.

**Q.** With CCCCCCCC [octane] as the molecule, how does the mass density ([1]; 298.2 K) read?
**A.** Its mass density is 698.569 ± 1.4 kg/m3.

**Q.** What about the mass density ([1]; 313.2 K) of the same molecule?
**A.** The mass density was 686.365 ± 1.3 kg/m3.

**Q.** For CCCCC [pentane], which mass density ([1]; 298.2 K) is on record?
**A.** Its mass density is 624.932 ± 0.3 kg/m3.

**Q.** Which mass density ([1]; 298.2 K) does the source give for CCCCCCCCCCC [undecane] here?
**A.** Its mass density is 736.786 ± 0.34 kg/m3.

**Q.** What about the mass density ([1]; 313.2 K) of the same molecule?
**A.** Its mass density is 725.693 ± 0.35 kg/m3.
